Assay results as given in patent US20230331679A1, “NAPHTHALENE MONOIMIDE COMPOUNDS AND METHODS THEREOF” (JAWAHARLAL NEHRU CENTRE FOR ADVANCED SCIENTIFIC RESEARCH, priority 2020, published 2023).

System: APP/PS1 and WT mice
Assay: Novel object identification (NOI) test
Type: in vivo
Procedure: In OF test, all the experimental mice were individually allowed to explore a novel platform (45 X 45 cm) and their locomotion activity was monitored for 5 min (Sony HDRCX405 camera) and analyzed using the smart 3 software (Panlab; FIG. 16A). […] The anxiety behaviors of TGR63 treated mice were assessed by the time spent and the entries in the center zone (20 X 20 cm) of OF arena. […] Next, the effect of TGR63 on memory processing, viz., acquisition, consolidation and retrieval were evaluated through NOI test, which has been widely used as a tool to study the neurobiology of memory using the natural tendency of rodents to explore novel objects more than the familiar objects. All the experimental mice were familiarized with two identical objects (familiar objects) in a known habituated arena and allowed to explore a novel and familiar object after 24 and 48 h of familiarization (FIG. 16E). The exploration time with each object was measured using a stopwatch, and the discrimination index (DI) was determined using the formula, (time exploring the novel object - time exploring the familiar) / (time exploring novel + familiar) * 100. […] Similarly, the calculated DI after 48 h was lowest (-7) for AD vehicle cohort compared to both vehicle and TGR63 treated WT cohorts (+43 and +45, respectively) (FIG. 16G). […] The blocking of essential synaptic receptors (NMDA and AMPA) by Aβ aggregation species leading to synaptic dysfunction followed by impairment in hippocampal LTP formation. […] TGR63 treatment ameliorates the memory impairment in APP/PS 1 mice by reducing the toxic amyloid burden from the brain under progressive AD conditions.

## CN(C)c1ccc(C#Cc2ccc3c4c(cccc24)C(=O)N(CC[N+](C)(C)C)C3=O)cc1 [TGR63, 2-(6-((4-(dimethylamino)phenyl)ethynyl)-1,3-dioxo-1H-benzo[de]isoquinolin-2(3H)-yl)-N,N,N-trimethylethan-1-aminium]
AD TGR63 cohort, after 24 h, AD vehicle -3
  discrimination index (DI): +43
AD TGR63 cohort, after 48 h, AD vehicle -7
  discrimination index (DI): +38
TGR63 treated WT and AD cohorts
  reduction of DI at 48 h compared to 24 h: ~ 5 units of DI
WT TGR63 cohort, after 24 h, WT vehicle +49
  discrimination index (DI): +50
WT TGR63 cohort, after 48 h, WT vehicle +43
  discrimination index (DI): +45
